Data published in article PMC12689914, “Identification of a novel dual-targeting peptide inhibitor of SARS-CoV-2 RBD and NRP1 through structure-based virtual screening” (Frontiers in Pharmacology, 2025).
Non-standard residues stand in square brackets, D forms with d. Residues, ends and D or L forms follow the SMILES beside them. No end group written: not given here. *: point of attachment. Biotin = O=C1N[C@H]2[C@H](CS[C@H]2CCCCC(=O)*)N1; βAla = NCCC(=O)O

Columns and labels:
NRP1 = biological target: T1, NRP1 (Homo sapiens, UniProt O14786); assay: MST binding affinity to NRP1
T1 construct: purchased Abcam
Experimental: (§1) MST assay was used to analyze the binding ability of peptides 1–5 to RBD and NRP1. Specifically, RBD and NRP1 proteins were labeled using a lysine (Lys) labeling kit, respectively, and their final concentrations were adjusted to 50 nM. The peptides were serially diluted in a 1:1 gradient starting from an initial concentration of 12.5 μM. Subsequently, the labeled proteins were mixed with the diluted peptides in 100 mM potassium phosphate buffer (pH 7.0). After incubation at room temperature for 5 min, the mixture was loaded into standard MST glass capillaries. Detection was performed using a Monolith NT.115 instrument with the MST power set to 50% and the LED power set to 20%. The experiment was independently repeated three times.

SARS-CoV-2 RBD = assay: MST binding affinity to RBD; conditions: for Kd: MST, 50 nM labeled protein, 100 mM potassium phosphate buffer pH 7.0
Experimental: as §1

[1] = tested on: live SARS-CoV-2 Omicron XBB.1.5 strain; design: species or system K18-hACE2 mice; conditions: mouse, in vivo
A549 cells = assay: MTT cytotoxicity assay; format: cell-based, human; conditions: 100 μM, 48 h
Experimental: A549 cells ([…], catalog number: PCS-300-010) were purchased from the American Type Culture Collection (ATCC, Manassas, VA, United States). The cells were cultured in Airway Epithelial Cell Basal Medium (ATCC, catalog number: PCS-300-030) supplemented with Bronchial/Tracheal Epithelial Cell Growth Kit (ATCC, catalog number: PCS-300-040) and incubated in a 37 °C incubator with 5% CO2. Then, cells were seeded into 96-well plates at a density of 5 × 10^4 cells per well and incubated overnight at 37 °C with 5% CO2. Subsequently, cells were treated with 100 μM peptides 1–5 for 48 h. After treatment, MTT stock solution (0.5 mg/mL) was added to each well, followed by additional 4-h incubation. Finally, the absorbance signal was measured at 570 nm using a microplate reader.

[2] = tested on: SARS-CoV-2 Omicron XBB.1.5 pseudovirus; conditions: 3.2 µM
[3] = mice, 1 and 5 mg/kg intranasal
hERG channel = biological target: T2, hERG channel (Homo sapiens, UniProt Q12809); assay: Predictor hERG fluorescence polarization assay; format: binding; conditions: for IC50 at 4 h: human, Predictor hERG Membrane (Invitrogen kit)
T2 construct: purchased Invitrogen
Experimental: This study was conducted using the Predictor hERG Fluorescence Polarization Assay Kit purchased from Invitrogen. The kit comprises Predictor hERG Tracer Red, Predictor hERG Membrane, Predictor hERG FP Assay Buffer, and E-4031 as the positive control. The Predictor hERG Tracer Red was diluted to prepare a 4 nM tracer working solution, while the stock solution of E-4031 was diluted to a 120 μM E-4031 working solution. Subsequently, serial dilutions of E-4031 were prepared to serve as the reference compound. Test peptides were subjected to gradient dilution to generate solutions with 6 concentration gradients. For the assay procedure, buffer or compound solution was first added to the assay plate, followed by the addition of membrane and the tracer. After incubating the assay plate at 25 °C for 4 h, fluorescence polarization (FP) values (mp values) were measured using an EnVision microplate reader (PerkinElmer) equipped with a set of polarized filters. The half-maximal inhibitory concentration (IC50) of active compounds was determined using GraphPad Prism software.

T1 sequence (O14786 22-923): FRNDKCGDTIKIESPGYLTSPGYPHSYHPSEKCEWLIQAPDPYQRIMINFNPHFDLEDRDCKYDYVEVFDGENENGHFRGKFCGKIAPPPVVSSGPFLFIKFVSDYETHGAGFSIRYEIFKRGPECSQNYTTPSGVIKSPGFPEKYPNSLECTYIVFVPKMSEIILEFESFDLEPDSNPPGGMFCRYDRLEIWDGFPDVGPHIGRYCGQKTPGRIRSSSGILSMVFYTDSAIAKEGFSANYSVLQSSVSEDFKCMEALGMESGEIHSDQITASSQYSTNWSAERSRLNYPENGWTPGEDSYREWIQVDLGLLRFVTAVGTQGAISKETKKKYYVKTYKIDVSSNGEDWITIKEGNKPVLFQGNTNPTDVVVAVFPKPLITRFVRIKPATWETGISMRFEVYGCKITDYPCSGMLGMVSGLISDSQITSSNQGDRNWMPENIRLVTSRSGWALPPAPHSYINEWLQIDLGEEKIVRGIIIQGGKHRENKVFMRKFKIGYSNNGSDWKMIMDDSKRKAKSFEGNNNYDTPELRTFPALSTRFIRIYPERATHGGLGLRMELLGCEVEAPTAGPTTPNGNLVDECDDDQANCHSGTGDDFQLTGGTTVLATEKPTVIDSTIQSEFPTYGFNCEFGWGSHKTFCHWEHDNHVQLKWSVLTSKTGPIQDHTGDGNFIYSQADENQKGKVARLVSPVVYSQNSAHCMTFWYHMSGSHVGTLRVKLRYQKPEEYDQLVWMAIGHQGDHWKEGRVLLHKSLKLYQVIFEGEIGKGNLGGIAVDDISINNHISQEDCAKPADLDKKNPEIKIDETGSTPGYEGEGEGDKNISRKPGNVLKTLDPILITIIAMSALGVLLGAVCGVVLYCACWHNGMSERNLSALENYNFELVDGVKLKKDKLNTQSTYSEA
T2 sequence (Q12809 whole entry): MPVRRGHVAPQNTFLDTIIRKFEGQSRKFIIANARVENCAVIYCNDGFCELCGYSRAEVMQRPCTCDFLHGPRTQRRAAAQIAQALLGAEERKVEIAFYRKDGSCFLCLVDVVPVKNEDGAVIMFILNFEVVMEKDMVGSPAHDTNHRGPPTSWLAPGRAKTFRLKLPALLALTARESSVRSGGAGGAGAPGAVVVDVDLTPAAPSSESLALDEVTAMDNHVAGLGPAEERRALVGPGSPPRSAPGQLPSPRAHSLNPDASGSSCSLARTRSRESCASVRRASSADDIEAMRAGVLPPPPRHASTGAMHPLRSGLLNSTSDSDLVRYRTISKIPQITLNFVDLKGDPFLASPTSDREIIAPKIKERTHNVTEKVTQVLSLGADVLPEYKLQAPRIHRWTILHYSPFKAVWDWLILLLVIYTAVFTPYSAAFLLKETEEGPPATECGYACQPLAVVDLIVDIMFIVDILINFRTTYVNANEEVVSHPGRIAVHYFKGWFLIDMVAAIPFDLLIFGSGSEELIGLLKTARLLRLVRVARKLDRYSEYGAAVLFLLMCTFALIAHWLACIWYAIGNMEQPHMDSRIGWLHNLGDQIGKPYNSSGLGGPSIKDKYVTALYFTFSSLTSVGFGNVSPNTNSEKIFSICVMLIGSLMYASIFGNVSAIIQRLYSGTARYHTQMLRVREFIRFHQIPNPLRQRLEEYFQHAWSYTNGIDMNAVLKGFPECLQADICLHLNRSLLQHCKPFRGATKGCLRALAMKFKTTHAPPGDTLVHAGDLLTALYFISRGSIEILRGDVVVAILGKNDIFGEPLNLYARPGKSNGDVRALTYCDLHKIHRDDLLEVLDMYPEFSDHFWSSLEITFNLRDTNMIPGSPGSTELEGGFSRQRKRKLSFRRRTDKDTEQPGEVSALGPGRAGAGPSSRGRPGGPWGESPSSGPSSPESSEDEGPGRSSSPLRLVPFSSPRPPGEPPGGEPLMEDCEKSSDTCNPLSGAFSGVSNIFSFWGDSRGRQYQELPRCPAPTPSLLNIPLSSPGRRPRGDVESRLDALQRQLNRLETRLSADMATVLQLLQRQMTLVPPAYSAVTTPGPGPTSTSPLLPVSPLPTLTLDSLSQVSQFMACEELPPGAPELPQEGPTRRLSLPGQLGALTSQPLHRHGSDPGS

N=C(N)NCCC[C@@H](N)C(=O)N1CCC[C@@H]1C(=O)N1CCC[C@@H]1C(=O)N[C@H](CCCNC(=N)N)C(=O)N[C@H](CCC(=O)O)C(=O)NCC(=O)N[C@H](CCCNC(=N)N)C(=O)O [NTP, rppregr] (H-[dR][dP][dP][dR][dE]G[dR]-OH)
Kd (NRP1): 141 nM

CSCC[C@H](NC(=O)[C@@H](NC(=O)[C@@H](N)CC(C)C)C(C)C)C(=O)NCC(=O)N[C@@H](CC(C)C)C(=O)N[C@@H](CC(N)=O)C(=O)N[C@H](C(=O)N[C@@H](Cc1c[nH]c2ccccc12)C(=O)N[C@@H](CC(C)C)C(=O)N[C@@H](CCCNC(=N)N)C(=O)N[C@@H](Cc1ccc(O)cc1)C(=O)N[C@@H](CO)C(=O)N[C@@H](CCCCN)C(=O)NCCC(=O)N[C@@H](CCCCNC(=O)CCCC[C@@H]1SC[C@@H]2NC(=O)N[C@@H]21)C(N)=O)C(C)C [PP-4] (H-LVMGLNVWLRYSK[βAla]K(Biotin)-NH2; N-terminus assumed)
NRP1 (Kd) (NRP1; MST, 50 nM labeled protein, 100 mM potassium phosphate buffer pH 7.0): no binding affinity
Kd (SARS-CoV-2 RBD): 79 nM

CC(C)C[C@H](NC(=O)[C@H](CCC(=O)O)NC(=O)[C@H](C)NC(=O)[C@@H](N)CCC(=O)O)C(=O)N[C@H](CC(=O)O)C(=O)N[C@H](C(=O)N[C@@H](CO)C(=O)N[C@@H](CC(=O)O)C(=O)N[C@@H](C)C(=O)N[C@@H](Cc1ccccc1)C(=O)N[C@@H](Cc1ccc(O)cc1)C(=O)N[C@@H](CCCNC(=N)N)C(=O)N[C@@H](Cc1ccccc1)C(=O)N[C@@H](Cc1ccccc1)C(=O)N[C@@H](CCCNC(=N)N)C(=O)N[C@@H](CCCNC(=N)N)C(=O)N[C@@H](C)C(=O)N[C@@H](CCCNC(=N)N)C(=O)O)C(C)C [Peptide-1] (H-EAEL[dD]VSDAFYRFFRRAR-OH; N-terminus and C-terminus assumed)
fold higher affinity for NRP1 compared with the single-target peptide (NRP1; versus NTP): ~4.4 fold
viral load in the lungs of mice vs control [1]: significantly reduced
cytotoxicity to A549 cells (A549 cells): no obvious toxicity
inhibition rate against SARS-CoV-2 Omicron XBB.1.5 infection [2]: approximately 80%
Kd (SARS-CoV-2 RBD): 19 nM
fold higher affinity for RBD compared with the single-target peptide (SARS-CoV-2 RBD; versus PP-4): approximately 4.2 fold
alanine aminotransferase (ALT) level [3]: did not change significantly
aspartate aminotransferase (AST) level [3]: did not change significantly
blood urea nitrogen (BUN) level [3]: did not change significantly
creatinine (CRE) level [3]: did not change significantly
IC50 at 4 h (hERG channel): > 50000 nM

CC(C)C[C@H](NC(=O)[C@H](C)NC(=O)[C@@H](NC(=O)[C@@H](N)CO)[C@@H](C)O)C(=O)N[C@H](CC(=O)O)C(=O)N[C@H](C(=O)N[C@@H](CO)C(=O)N[C@@H](CC(=O)O)C(=O)N[C@@H](C)C(=O)N[C@@H](Cc1ccccc1)C(=O)N[C@@H](Cc1ccc(O)cc1)C(=O)N[C@@H](CCCNC(=N)N)C(=O)N[C@@H](Cc1ccccc1)C(=O)N[C@@H](Cc1ccccc1)C(=O)N[C@@H](CCCNC(=N)N)C(=O)N[C@@H](CCCCN)C(=O)N[C@@H](C)C(=O)N[C@@H](CCCNC(=N)N)C(=O)O)C(C)C [Peptide-2] (H-STAL[dD]VSDAFYRFFRKAR-OH; N-terminus and C-terminus assumed)
Kd (SARS-CoV-2 RBD): 56 nM
IC50 at 4 h (hERG channel): > 50000 nM

CC[C@H](C)[C@H](NC(=O)[C@@H](N)CC(N)=O)C(=O)N[C@@H](CCC(=O)O)C(=O)N[C@@H](CC(C)C)C(=O)N[C@H](CC(=O)O)C(=O)N[C@@H](C)C(=O)N[C@@H](CO)C(=O)N[C@@H](CC(=O)O)C(=O)N[C@@H](C)C(=O)N[C@@H](Cc1ccccc1)C(=O)N[C@H](C(=O)N[C@@H](CCCNC(=N)N)C(=O)N[C@@H](Cc1ccccc1)C(=O)N[C@@H](Cc1ccccc1)C(=O)N[C@@H](CCCNC(=N)N)C(=O)N[C@@H](CCC(N)=O)C(=O)N[C@@H](C)C(=O)N[C@@H](CCCNC(=N)N)C(=O)O)C(C)C [Peptide-4] (H-NIEL[dD]ASDAFVRFFRQAR-OH; N-terminus and C-terminus assumed)
Kd (SARS-CoV-2 RBD): 69 nM
IC50 at 4 h (hERG channel): > 50000 nM

CC[C@H](C)[C@H](NC(=O)[C@H](CCC(=O)O)NC(=O)[C@H](CS)NC(=O)[C@H](C)N)C(=O)N[C@H](CC(=O)O)C(=O)N[C@H](C(=O)N[C@@H](CO)C(=O)N[C@@H](CC(=O)O)C(=O)N[C@@H](C)C(=O)N[C@@H](Cc1ccccc1)C(=O)N[C@@H](CCCCN)C(=O)N[C@@H](CCCNC(=N)N)C(=O)N[C@@H](Cc1ccccc1)C(=O)N[C@@H](Cc1ccccc1)C(=O)N[C@@H](CCCNC(=N)N)C(=O)N[C@@H](C)C(=O)N[C@@H](C)C(=O)N[C@@H](CCCNC(=N)N)C(=O)O)C(C)C [Peptide-5] (H-ACEI[dD]VSDAFKRFFRAAR-OH; N-terminus and C-terminus assumed)
Kd (SARS-CoV-2 RBD): 43 nM
IC50 at 4 h (hERG channel): > 50000 nM

ELELVVSTAFYRFFRHAR [Peptide-3]
Kd (NRP1): 81 nM
IC50 (hERG channel): > 50000 nM
